System: subjects with Age-Associated Memory Impairment (safety population)
Assay: AAMI pilot study: safety and tolerability
Type: in vivo, human
Procedure: All randomized subjects that received at least 1 dose of study medication were included in the Safety Population.
Safety evaluations were based on the safety population. Safety and tolerability were assessed in terms of AEs, vital signs, 12-lead ECG, clinical laboratory data, medical history, and study drug compliance. Safety and tolerability data were presented by treatment group.

## CC/C=C\C/C=C\C/C=C\C/C=C\C/C=C\CCCC(=O)OCC [Icosapent Ethyl, ethyl eicosapentaenoate]
1 g
  subjects with nausea Probably Related to the study drug: One
1 g cohort
  subjects with nausea Possibly Related to the study drug: two
2 g cohort
  subjects with nausea Possibly Related to the study drug: one
2 g group
  subjects discontinued due to TEAEs: 2 subjects
2 g group, judged unrelated to study drug
  SAE reported: One
4 g
  subjects with diarrhea Probably Related to the study drug: Another subject
4 g cohort
  subjects with nausea Possibly Related to the study drug: two
All ethyl-EPA treatment groups, 6 weeks
  TEAEs reported: 105 events
All groups
  TEAEs Definitely Related to the study drug: No TEAEs
  deaths during the study: no deaths

Reference: patent publication US11058661B2, “Compositions and methods for lowering triglycerides in a subject on concomitant statin therapy and having hsCRP levels of at least about 2 mg/L” (priority 2018, dated 2021)
